We go through one molecule from PMC9246869, “Allosteric inhibition of PPM1D serine/threonine phosphatase via an altered conformational state” (Nature Communications, 2022).

Several values for one entry are separate records, joined by “and”; a condition that tells them apart may be missing. Equal values may be shown once.

One test deals with T1, PPM1DΔhinge (Homo sapiens, UniProt O15297, DEL155-163/G166S/M164G/T165G).
T1 construct: PPM1D1–154-GGS-167–420 (PPM1D∆hinge); His(6)-SUMO (N, cleaved yes); made in house; host or cells: E. coli BL21 (DE3)
T1 sequence (O15297 with tags, fused parts or gaps DEL155-163/M164G/T165G/G166S): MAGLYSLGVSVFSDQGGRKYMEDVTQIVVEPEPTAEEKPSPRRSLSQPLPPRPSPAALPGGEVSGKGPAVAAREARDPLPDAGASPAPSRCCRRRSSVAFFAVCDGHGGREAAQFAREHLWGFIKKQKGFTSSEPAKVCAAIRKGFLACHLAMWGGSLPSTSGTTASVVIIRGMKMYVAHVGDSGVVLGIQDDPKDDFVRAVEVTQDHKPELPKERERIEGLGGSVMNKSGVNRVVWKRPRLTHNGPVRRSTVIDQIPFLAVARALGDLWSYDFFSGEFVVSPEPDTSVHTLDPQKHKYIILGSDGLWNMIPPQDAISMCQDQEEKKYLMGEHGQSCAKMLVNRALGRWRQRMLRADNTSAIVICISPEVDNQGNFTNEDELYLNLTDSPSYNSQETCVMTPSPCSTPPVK
Kind of test: p38 MAPK enzymatic assay (LC/MS, dephosphorylation of T180). Type of test: biochemical. The conditions noted are these: for P38 Assay, signal relative to 0 nM GSK (=100): PPM1DΔHinge, individual runs, listed as GSK. Here is the method: (§1) To generate the double phosphorylated form of p38 MAPK for the LC/MS enzymatic PPM1D assay, 20 µM p38 MAPK was incubated with 100 nM MKK6 in 50 mM HEPES pH 7.4, 10 mM ATP, 40 mM MgCl2, and 100 µM TCEP at RT for 2 h. The reaction mixture was diluted 2-fold with 20 mM HEPES pH 7.4, 300 mM NaCl, 100 µM TCEP, and 1 mM MgCl2 and passed over a Superdex 200 26/600 column equilibrated with 20 mM HEPES pH 7.4, 150 mM NaCl, 100 µM TCEP, and 1 mM MgCl2 to remove excess ATP and MKK6 from the phosphorylated p38 MAPK (p38PP) protein. The protein was concentrated and stored in aliquots for single time usage at −80 °C.
(§2) The enzymatic activity of the PPM1D constructs was measured by quantifying the dephosphorylation of the substrate protein p38PP by LC/MS. Assays were run in 384-well plates (Axygen; #P-384-120SQ-C) in a final volume of 80 µL per well. The buffer consisted of 20 mM HEPES, 20 mM NaCl, 20 mM MgCl2 and 0.1 mM TCEP, at a pH of 7.5. The reaction was initiated by addition of the p38PP substrate to a solution containing 10 nM PPM1D to a final concentration of 300 nM for p38PP. The plate was then incubated at room temperature and the reaction quenched after 15 min increments with formic acid to a final concentration of 6% (v/v) up to 120 min. For IC50 measurements, the GSK2830371 compound was pre-incubated with the PPM1D constructs in a 2% DMSO-containing buffer for 10 min prior to the addition of the substrate and the reactions were quenched after 2 h. In both experiments, BSA was added to a final concentration of 0.2 µM during the quench step as a carrier protein and injection control for the LC/MS. The plate was then sealed and spun down at 1500 × g for 1 min prior to LC/MS analysis. Plates were analyzed within the same day of the quench step.
(§3) Substrate and product detection was achieved by multiple-reaction monitoring (MRM) using a Waters Acquity UPLC chromatography system connected to an Xevo TQ-XS mass spectrometer (Waters, Milford, MA). Source parameters were set as follows: polarity ES+, capillary 2.0 kV, cone voltage, 50 V; collision energy, 5 V; cone gas flow, 200 L/h; collision gas flow, 0.16 mL/min; source temperature, 150 °C; desolvation temperature, 500 °C; and desolvation gas flow, 800 L/h. Analytes were separated using an Agilent PLRP-S Reversed-Phase column (5 µm; 2.1 × 50 mm, 300 Å Agilent Technologies, Santa Clara, CA) at 60 °C. Sample storage temperature was set to 15 °C. Mobile phases consisted of 0.1% (v/v) formic acid (Millipore EMSURE) in LC/MS grade water (JTBaker) and 0.1% v/v formic acid in acetonitrile (Honeywell). Initial column conditions were set to […]. Proteins were eluted using a 1.5 min gradient of 5–98% acetonitrile at 0.4 ml/min. MassLynx and TargetLynx software (Waters, version 4.2) were used for sample acquisition and data analysis, respectively. Analytes were quantified by integration of peak areas under the curve using the transitions 941.10 to 941.05 m/z for P38PP (substrate) and 939.10 to 939.09 m/z for P38P (product). Areas were normalized for instrumental variation by dividing by the BSA peak area (1209.23 to 1209.2 m/z transition) measured in the same well.

For another test, the target named is T2, PPM1D1–420 (Homo sapiens, UniProt O15297).
T2 construct: PPM1D1–420 was PCR-amplified from the synthesized gene with BsaI sites; His(6)-SUMO (N, cleaved yes); made in house; host or cells: E. coli BL21 (DE3)
T2 sequence (O15297 1-420): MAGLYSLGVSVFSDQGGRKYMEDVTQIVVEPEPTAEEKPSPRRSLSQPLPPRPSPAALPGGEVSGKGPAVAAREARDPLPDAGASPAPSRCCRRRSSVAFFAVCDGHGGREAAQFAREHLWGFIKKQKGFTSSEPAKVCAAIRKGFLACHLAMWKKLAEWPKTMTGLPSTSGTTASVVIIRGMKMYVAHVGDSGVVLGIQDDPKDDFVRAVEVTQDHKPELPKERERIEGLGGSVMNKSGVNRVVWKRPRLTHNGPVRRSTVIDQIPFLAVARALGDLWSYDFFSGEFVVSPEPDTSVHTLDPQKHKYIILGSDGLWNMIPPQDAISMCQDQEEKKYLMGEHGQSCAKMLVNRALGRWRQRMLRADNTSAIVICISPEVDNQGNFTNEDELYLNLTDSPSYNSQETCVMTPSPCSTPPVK
The test is described as above. The class given is biochemical. The conditions noted are these: for P38 Assay, signal relative to 0 nM GSK (=100): PPM1D1-420, individual runs, listed as GSK. The method, then: as §1, §2, §3

For the molecule `Cc1ncc(Cl)cc1NCc1ccc(C(=O)N[C@@H](CC2CCCC2)C(=O)NC2CC2)s1` [GSK2830371], on PPM1DΔhinge (PPM1DΔhinge versus PPM1D1–420), the “increase of IC50 in p38 MAPK assay upon hinge deletion” value was found to be 100 fold. For the same molecule, the “P38 Assay, signal relative to 0 nM GSK (=100)” value on PPM1DΔhinge ([GSK] 1.953 nM) was 100.358 and 104.09 and 99.8488; at PPM1DΔhinge ([GSK] 3.906 nM) it was 98.4717 and 98.7741 and 94.5709; on PPM1DΔhinge ([GSK] 7.813 nM), 97.8741 and 98.6995 and 87.7716; at PPM1DΔhinge ([GSK] 15.625 nM) it was 91.5216 and 88.9322 and 63.2104; on PPM1DΔhinge ([GSK] 31.25 nM), 84.0592 and 89.4059 and 56.2735; on PPM1DΔhinge ([GSK] 62.5 nM), 71.608 and 76.249 and 61.6546. Also, the “P38 Assay, signal relative to 0 nM GSK (=100)” value on PPM1DΔhinge ([GSK] 125 nM) is 62.6262 and 54.2715 and 52.5307; on PPM1DΔhinge ([GSK] 250 nM), 49.6072 and 48.4313 and 45.7898; on PPM1DΔhinge ([GSK] 500 nM) it was 38.0355 and 40.9669 and 36.3652; on PPM1DΔhinge ([GSK] 1000 nM), 32.2867 and 33.3807 and 27.8112; at PPM1D1–420 ([GSK] 0.49 nM), 93.1001 and 100 and 88.922; on PPM1D1–420 ([GSK] 0.98 nM), 86.1215 and 81.7339 and 63.3381. Further, the “P38 Assay, signal relative to 0 nM GSK (=100)” value at PPM1D1–420 ([GSK] 1.95 nM) is 86.7639 and 71.6152 and 63.7723; on PPM1D1–420 ([GSK] 3.9 nM), 51.5439 and 51.2694 and 46.219; at PPM1D1–420 ([GSK] 7.8 nM) it was 29.2083 and 28.1523 and 24.0173; at PPM1D1–420 ([GSK] 15.6 nM) it was 16.4584 and 13.8278 and 11.5309; on PPM1D1–420 ([GSK] 31.2 nM), 11.2856 and 7.234 and 5.456; at PPM1D1–420 ([GSK] 62.5 nM), 6.81 and 5.822 and 3.842. The “P38 Assay, signal relative to 0 nM GSK (=100)” value on PPM1D1–420 ([GSK] 125 nM) is 6.3041 and 6.187 and 2.5614; at PPM1D1–420 ([GSK] 250 nM), 4.442 and 3.236 and 2.029; on PPM1D1–420 ([GSK] 500 nM), 3.225 and 4.879 and 3.8956. The same molecule came in with an IC50 at PPM1D1–420 (PPM1D1–420, full length p38 MAPK substrate, LC/MS) of around 6 nM.

As usually defined, the IC50 is the concentration needed to halve the response being measured. A high value points to a need for much substance.
